Reference: US20110079773A1, “Selectively Functionalized Rylene Imides and Diimides” (priority 2009, published 2011)
≈ marks a conversion by molar mass, not a printed value. Where “and” joins values, the source holds several entries; their conditions need not be identical. Identical values can stand only once. Marks after values point to notes of the source that are not given here.

Columns and labels:
Assay type in all cases: physicochemical
[1] = Electrochemistry (redox potentials); settings: for E^−1/2: first reduction potential
Method: Electrochemical measurements were performed using a CH Instruments Model 622 electrochemical workstation. Measurements for compounds 4, 6, 8, and 10 were performed in dichloromethane containing 0.1 M tetrabutylammonium hexafluorophosphate (TBAPF6) electrolyte. Measurements for 2 were performed in benzonitrile with the same electrolyte. A 1.0 mm diameter platinum disk electrode, platinum wire electrode, and […] reference electrode were employed. The ferrocene/ferrocenium redox couple (Fc/Fc^+, 0.46 V vs. SCE) (see Connelly et al., Chem. Rev., 96: 877-910 (1996)) was used as an internal standard. TBAPF6 was recrystallized twice from ethyl acetate prior to use.
Alkylation (e.g., substitution of the phenethyl groups) ortho to the imide nitrogen atoms appears to render the present compounds somewhat more difficult to reduce, but easier to oxidize (Table 3). The reduction potentials of the disubstituted compounds (2, 4, and 6) are approximately 130 mV more negative than those of their parent compounds. Correspondingly, the oxidation potential of the disubstituted 6 is 40 mV less positive than that of […]. Tetrasubstituted 8 and 10 have reduction potentials that are more negative by ˜200 mV than their unsubstituted analogs. These shifts in redox potentials reasonably arise from the electron-donating nature of the alkylating (e.g., phenethyl) groups. The oxidation and reduction potentials of all alkylated molecules shift in the same direction by nearly the same amount, such that the corresponding HOMO-LUMO energy gap remains the same, as is reflected in their electronic absorption and emission spectra described below.

[2] = Steady-state electronic absorption and fluorescence spectroscopy; settings: for λmax: UV-vis absorption in toluene; for E(S1): determined from the average energy of the absorption and emission maxima; for ε: extinction coefficient at λmax; for ε / λem: toluene; for λem: fluorescence emission maximum; for φF: fluorescence quantum yield
Method: Steady-state electronic absorption spectra were recorded on a Shimadzu 1601 UV/Vis spectrometer with a 2 mm quartz cuvette. Fluorescence measurements were performed using a PTI Quanta-Master 1 single photon counting spectrofluorimeter in a right angle configuration with a 1 cm quartz cuvette.
The intensity of the S0→>S1 transition increases with the size of the aromatic core, while the energy decreases. The fluorescence spectrum of each chromophore is shown in FIG. 4b and summarized in Table 4 along with that of compounds 1, 3, 5, 7, and 9. A similar trend with the emission maxima moving to longer wavelengths as the size of the aromatic core increases was observed. The electronic absorption and fluorescence properties of all the alkylated chromophores are very similar to those of the parent compounds. No observable trend is apparent for the slight shifts in λmax; however, with the exception of 2, all alkylated compounds have slightly lower extinction coefficients than their parent compounds. The fluorescence emission maxima of the alkylated compounds (Table 4) are similar to those of the parent compounds as reported in the literature. See Hydlovic et al., Phtochem. Photobiol. A., 112: 197-203 (1998); Licchelli et al., Chem. Eur. J., 8: 5161-5169 (2002); Weil et al., Chem. Eur. J., 8: 4742-4750 (2002); and Sadrai et al., J. Phys. Chem., 96: 7988-7996 (1992).

[3] = Femtosecond transient absorption (excited-state decay); settings: transient absorption decay time constant, dry toluene
Source text: Femtosecond transient absorption measurements were made using a Ti:sapphire laser system as detailed in previously reported work. See Kelley et al., J. Am. Chem. Soc., 129: 3173-3181 (2007). The wavelengths used to excite the samples were 390 nm (1-4), 416 nm (5-8), and 650 nm (9 and 10). The instrument response function for the pump-probe experiments is 160 fs. The transient spectra were obtained using 10 s of averaging at a given delay time. Glass cuvettes with a 2 mm pathlength were used and the samples were dissolved in dry toluene and irradiated with 1.0 μJ pulses at the excitation wavelength. Analysis of the kinetic data was performed at multiple wavelengths using a Levenberg-Marquardt nonlinear least-squares fit to a general sum-of-exponentials function with an added Gaussian to account for the finite instrument response.
The transient absorption spectra of naphthalene monoimide 2, specifically, the S1→>Sn absorption is characterized by a single broad band at 525 nm, which decays monoexponentially with a time constant τD=34 ps. This is similar to the time constant of other NMI compounds and is attributed to rapid intersystem crossing leading to the triplet state of 2. […] The residual 530 nm absorption band decays further with a 175 ps time constant. […]

Solubility in toluene = assay: Solubility in toluene
Method: As used herein, a compound can be considered soluble in a solvent when at least 0.1 mg of the compound can be dissolved in 1 mL of the solvent. Examples of common organic solvents include petroleum ethers; acetonitrile; aromatic hydrocarbons such as benzene, toluene, xylene, and mesitylene; ketones such as acetone, and methyl ethyl ketone; ethers such as tetrahydrofuran, dioxane, bis(2-methoxyethyl)ether, diethyl ether, di-isopropyl ether, and t-butyl methyl ether; alcohols such as methanol, ethanol, butanol, and isopropyl alcohol; aliphatic hydrocarbons such as hexanes; esters such as methyl acetate, ethyl acetate, methyl formate, ethyl formate, isopropyl acetate, and butyl acetate; amides such as dimethylformamide and dimethylacetamide; sulfoxides such as dimethylsulfoxide; halogenated aliphatic and aromatic hydrocarbons such as dichloromethane, chloroform, ethylene chloride, chlorobenzene, dichlorobenzene, and trichlorobenzene; and cyclic solvents such as cyclopentanone, cyclohexanone, and 2-methypyrrolidone. In various embodiments, the present compounds can have good solubility in solvents that are aromatic hydrocarbons such as benzene, toluene, xylene, and mesitylene.
Table 2 below compares the solubilities of several compounds according to the present teachings with their unsubstituted counterparts in toluene.

[4] = shift versus unsubstituted parent

Row | E^−1/2 ([1]; obtained in benzonitrile with 0.1 M TBAPF6) | Compound | Reduction potential more negative than that of parent compound [1, 4] | λmax [2] [nm] | E(S1) [2] [eV] | ε [2] [M⁻¹ cm⁻¹] | λem [2] | φF [2] | τD [3] | Solubility relative to unsubstituted counterpart (Solubility in toluene) | solubility (Solubility in toluene; organic solvent or mixture) [µg/mL] | E^−1/2 ([1]; dichloromethane, 0.1 M TBAPF6, Fc/Fc+ (0.46 V vs. SCE) internal standard) | E^+1/2 ([1]; oxidation potential, dichloromethane, 0.1 M TBAPF6, Fc/Fc+ (0.46 V vs. SCE) internal standard) [V] | E^2−1/2 ([1]; second reduction potential, dichloromethane, 0.1 M TBAPF6) | Oxidation potential less positive than that of parent [1, 4] [mV]
1 | −1.53^b | CCCCCCCCN1C(=O)c2c(CCc3ccccc3)ccc3ccc(CCc4ccccc4)c(c23)C1=O [Compound 2, N-(n-octyl)-2,7-bis(phenylethyl)naphthalene-1,8-dicarboximide] | approximately 130 mV | 353 | 3.34 | 15000 | 394^ nm | 0.08 | 34 ps and 34 ± 1 ps | – | – | – | – | – | –
2 | – | CCCCC(CC)CN1C(=O)c2c(CCc3ccccc3)cc3c4cccc5cccc(c6cc(CCc7ccccc7)c(c2c36)C1=O)c54 (stereo not drawn) [Compound 6, N-(2′-ethylhexyl)-2,5-bis(phenethyl)perylene-3,4-dicarboximide] | approximately 130 mV | 501 | 2.43 | 27000 | 521^ nm | 0.98 | 4700 ± 88 ps | three times more soluble | 6000 (≈ 9.35 mM) | −1.13^ | 1.37 | −1.43^ | 40
